In publication PMC4467398, “Preclinical antitumor activity of ST7612AA1: a new oral thiol-based histone deacetylase (HDAC) inhibitor” (Oncotarget, 2014):
“Also recorded” adds a separate entry of the source. Where two headings read alike, the source gives them in different places.

Columns and labels:
[1] = test system: Acute myeloid leukemia U937; experiment: In vitro proliferation assay (sulphorodamine B); type: cell-based; settings: Homo sapiens, U-937, 72 h, mean ± S.E.M.
GCB-DLBCL VAL = experiment: In vitro proliferation assay (MTT); type: cell-based; settings: Homo sapiens, 72 h, mean ± S.E.M.
Protocol: (§1) Anti-proliferative activity was first assessed on a panel of cell lines derived from solid tumors and hematological cancers and then on a large panel of cell lines derived from mature B-cell lymphomas. […] Lymphoma cells were seeded in 96-wells tissue culture plates in complete medium and were exposed to increasing concentrations of ST7612AA1 for 48 or 72 h; the anti-proliferative activity was assessed using 3-(4,5-dimethylthiazol-2-yl)-2,5-diphenyltetrazolium bromide (MTT). The drug potency was evaluated by means of the “ALLFIT” computer program and defined as IC50 (drug concentration required for 50% inhibition of cell survival).

GCB-DLBCL Karpas422 = experiment: In vitro proliferation assay (MTT); type: cell-based; settings: Homo sapiens, KARPAS-422, 72 h, mean ± S.E.M.
Protocol: as §1

[2] = test system: Mantle cell lymphoma Granta-519; experiment: In vitro proliferation assay (MTT); type: cell-based; settings: Homo sapiens, 72 h, mean ± S.E.M.
Protocol: as §1

GCB-DLBCL OCI-Ly8 = experiment: In vitro proliferation assay (MTT); type: cell-based; settings: Homo sapiens, 72 h, mean ± S.E.M.
Protocol: as §1

[3] = test system: Splenic marginal zone lymphoma K1718; experiment: In vitro proliferation assay (MTT); type: cell-based; settings: Homo sapiens, 72 h, mean ± S.E.M.
Protocol: as §1

GCB-DLBCL DOHH2 = experiment: In vitro proliferation assay (MTT); type: cell-based; settings: Homo sapiens, DOHH-2, 72 h, mean ± S.E.M.
Protocol: as §1

GCB-DLBCL OCI-Ly7 = experiment: In vitro proliferation assay (MTT); type: cell-based; settings: Homo sapiens, 72 h, mean ± S.E.M.
Protocol: as §1

[4] = test system: Splenic marginal zone lymphoma SSK41; experiment: In vitro proliferation assay (MTT); type: cell-based; settings: Homo sapiens, 72 h, mean ± S.E.M.
Protocol: as §1

GCB-DLBCL SUDHL-4 = experiment: In vitro proliferation assay (MTT); type: cell-based; settings: Homo sapiens, SU-DHL-4, 72 h, mean ± S.E.M.
Protocol: as §1

[5] = test system: Mantle cell lymphoma Jeko-1; experiment: In vitro proliferation assay (MTT); type: cell-based; settings: Homo sapiens, 72 h, mean ± S.E.M.
Protocol: as §1

GCB-DLBCL SUDHL-6 = experiment: In vitro proliferation assay (MTT); type: cell-based; settings: Homo sapiens, SU-DHL-6, 72 h, mean ± S.E.M.
Protocol: as §1

ABC-DLBCL U2932 = experiment: In vitro proliferation assay (MTT); type: cell-based; settings: Homo sapiens, 72 h, mean ± S.E.M.
Protocol: as §1

ABC-DLBCL OCI-Ly10 = experiment: In vitro proliferation assay (MTT); type: cell-based; settings: Homo sapiens, 72 h, mean ± S.E.M.
Protocol: as §1

[6] = test system: Splenic marginal zone lymphoma VL51; experiment: In vitro proliferation assay (MTT); type: cell-based; settings: Homo sapiens, 72 h, mean ± S.E.M.
Protocol: as §1

[7] = test system: Mantle cell lymphoma REC-1; experiment: In vitro proliferation assay (MTT); type: cell-based; settings: Homo sapiens, Rec1, 72 h, mean ± S.E.M.
Protocol: as §1

ABC-DLBCL TMD8 = experiment: In vitro proliferation assay (MTT); type: cell-based; settings: Homo sapiens, 72 h, mean ± S.E.M.
Protocol: as §1

[8] = test system: Mantle cell lymphoma MAVER1; experiment: In vitro proliferation assay (MTT); type: cell-based; settings: Homo sapiens, 72 h, mean ± S.E.M.
Protocol: as §1

T-cell lymphoma HUT78 = experiment: In vitro proliferation assay (MTT); type: cell-based; settings: Homo sapiens, 72 h, mean ± S.E.M.
Protocol: as §1

Breast cancer MCF-7 = experiment: In vitro proliferation assay; type: cell-based; settings: Homo sapiens, MCF7, 72 h, mean ± S.E.M.
Protocol: as §1

NSCLC NCI-H1975 = experiment: In vitro proliferation assay (sulphorodamine B); type: cell-based; settings: Homo sapiens, 72 h, mean ± S.E.M.
NSCLC NCI-H460 = experiment: In vitro proliferation assay (sulphorodamine B); type: cell-based; settings: Homo sapiens, 72 h, mean ± S.E.M.
GCB-DLBCL model DOHH2 = experiment: In vivo lymphoma xenograft model; parameters: species or system NOD-SCID mice; settings: po at days 12, 13, 15, 16, 18, 19 after tumor injection; vs control mice
Protocol: The in vivo experiment with lymphoma model was performed in the IOR laboratory according to study protocols approved by the local Cantonal Veterinary Authority (No. 5/2011). At day 1, tumors were established by injecting DOHH2 lymphoma cells (200 μL of PBS, 8×10^6 cells/mouse) into the left flanks of 5-weeks old female NOD-SCID mice (Harlan Laboratories). Tumor size was measured on regular basis and until tumors reached around […] in diameter (day 12). Then, treatments were conducted at day 12, 13, 15, 16, 18, 19. Tumors were measured at 12, 14, 17, 21, 25 days. Tumor volumes were calculated as described above. Mice were sacrificed when physical conditions became critical or when tumors reached a weight of about 0.5 gr. For comparison between a control and a treatment group, an unpaired Mann-Whitney's test was used. A P-value <0.05 was considered significant.

[9] = test system: acetylation of alpha-tubulin in NCI-H460 NSCLC cells; experiment: Western blot with densitometry, tubulin acetylation; type: cell-based, human; settings: for Acetyl tub./tubulin: NCI-H460, vehicle 0,341
Protocol: For assessing the in vitro effect of ST7612AA1 on acetylation of α-tubulin and histones, NSCLC cells were treated with the test compound at various concentrations (dose-response curve). SAHA 5 μM was used as reference inhibitor. Protein extraction, separation and immunoblotting were performed as previously described. Immunoreactive bands were finally subjected to densitometry analysis by a phosphoimaging system (STORM, Molecular Dynamics), and then the IC50 values were calculated by the “ALLFIT” computer program. The antibodies used are listed in Supplementary Table 2.

ABC-DLBCL cell lines = experiment: In vitro proliferation assay, lymphoma panel (summary); type: cell-based; settings: Homo sapiens
Protocol: as §1

[10] = test system: splenic marginal zone lymphoma (SMZL) cell lines; experiment: as above; type: cell-based; settings: Homo sapiens
Protocol: as §1

[11] = test system: mantle cell lymphoma (MCL) cell lines; experiment: as above; type: cell-based; settings: Homo sapiens
Protocol: as §1

mature B cell lymphomas = experiment: as above; type: cell-based; settings: Homo sapiens, different mature B cell lymphomas
Protocol: as §1

GCB-DLBCL cell lines = experiment: as above; type: cell-based; settings: Homo sapiens
Protocol: as §1

## CC(=O)SCCCCC[C@H](NC(=O)[C@H]1CCC(=O)N1)C(=O)Nc1ccccc1 [ST7612AA1]
[1]
  IC50: 49 nM
GCB-DLBCL VAL
  IC50: 2360 nM
GCB-DLBCL Karpas422
  IC50: 2660 nM
[2]
  IC50: 470 nM
GCB-DLBCL OCI-Ly8
  IC50: 240 nM
[3]
  IC50: 100 ± 10 nM
GCB-DLBCL DOHH2
  IC50: 46 ± 10 nM
GCB-DLBCL OCI-Ly7
  IC50: 560 nM
[4]
  IC50: 260 nM
GCB-DLBCL SUDHL-4
  IC50: 980 nM
[5]
  IC50: 250 ± 10 nM
GCB-DLBCL SUDHL-6
  IC50: 630 nM
ABC-DLBCL U2932
  IC50: 800 nM
ABC-DLBCL OCI-Ly10
  IC50: 260 nM
[6]
  IC50: 120 nM
[7]
  IC50: 550 nM
ABC-DLBCL TMD8
  IC50: 100 ± 30 nM
[8]
  IC50: 390 nM
T-cell lymphoma HUT78
  IC50: 480 ± 20 nM
Breast cancer MCF-7
  IC50: 190 nM
NSCLC NCI-H1975
  IC50: 500 nM
NSCLC NCI-H460
  IC50: 66 ± 10 nM
GCB-DLBCL model DOHH2
  tumor progression / tumor volumes: decreased tumor volumes; also recorded: significant delay in tumor progression
[9]; 0,2 µM
  Acetyl tub./tubulin: 1,181
[9]; 0,04 µM
  Acetyl tub./tubulin: 0,649
[9]; 1 µM
  Acetyl tub./tubulin: 2,012
[9]; 0,008 µM
  Acetyl tub./tubulin: 0,588
[9]; Homo sapiens, NCI-H460, 3 h exposure, Western blot densitometry, read-out: IC50 for increasing the acetylation of tubulin
  IC50: 200 nM
ABC-DLBCL cell lines; read-out: IC50 range
  IC50: 101 to 805 nM
ABC-DLBCL cell lines; read-out: median IC50
  IC50: 257 nM
[10]; read-out: IC50 range
  IC50: 102 to 257 nM
[10]; read-out: median IC50
  IC50: 119 nM
[11]; read-out: IC50 range
  IC50: 248 to 553 nM
[11]; read-out: median IC50
  IC50: 433 nM
Mature B cell lymphomas; read-out: IC50 range
  IC50: 46 to 2660 nM
Mature B cell lymphomas; read-out: median IC50
  IC50: 375 nM
GCB-DLBCL cell lines; read-out: IC50 range
  IC50: 46 to 2660 nM
GCB-DLBCL cell lines; read-out: median IC50
  IC50: 597 nM
